The results in this text go back to ChEMBL document CHEMBL3046067, “Synthesis of some novel 3,5-disubstituted 1,3,4-oxadiazole derivatives and anticancer activity on EAC animal model” (2011).

The source made the active and inactive calls. No cut-off for these calls is given here.

A short description of experiment [1]: Antitumor activity against Mus musculus (mouse) EAC xenografted in Mus musculus Swiss albino (mouse) assessed as non-viable cells at 50 mg/kg, ip qd for 7 days relative to control. In kind it is functional, Ehrlich. The note with it: route intraperitoneal.
A short description of experiment [2]: Antitumor activity against Mus musculus (mouse) EAC xenografted in Mus musculus Swiss albino (mouse) assessed as viable cells at 50 mg/kg, ip qd for 7 days relative to control. It counts as functional, Ehrlich. The note with it: route intraperitoneal.
The nature of experiment [3]: Antitumor activity against Mus musculus (mouse) EAC xenografted in Mus musculus Swiss albino (mouse) assessed as inhibition of tumor formation at 50 mg/kg, ip qd for 7 days relative to control. It counts as functional. The note with it: Ehrlich, 168 h, route intraperitoneal.
For experiment [4], the system named is Mus musculus. Put plainly: Antitumor activity against Mus musculus (mouse) EAC xenografted in Mus musculus Swiss albino (mouse) assessed as increase in median life span at 50 mg/kg, ip qd for 7 days relative to control. In kind it is functional. The note with it: 168 h, route intraperitoneal, read-out: Survival.
The subject of experiment [5] is Mus musculus. Put plainly: Antitumor activity against Mus musculus (mouse) EAC xenografted in Mus musculus Swiss albino (mouse) assessed as increase in average life span at 50 mg/kg, ip qd for 7 days relative to control. The note with it: 168 h, route intraperitoneal, read-out: Survival. It counts as functional.
Experiment [6] has as its system Mus musculus. Put plainly: Antitumor activity against Mus musculus (mouse) EAC xenografted in Mus musculus Swiss albino (mouse) assessed as restoration of hemoglobin level at 50 mg/kg, ip qd for 7 days. In kind it is functional, organism-based. More on the design: dose 50 mg/kg.
Experiment [7] has as its system Mus musculus. The experiment can be described thus: Antitumor activity against Mus musculus (mouse) EAC xenografted in Mus musculus Swiss albino (mouse) assessed as restoration of WBC count at 50 mg/kg, ip qd for 7 days. In kind it is functional, organism-based. Details: dose 50 mg/kg.
For experiment [8], the system named is Mus musculus. The experiment can be described thus: Antitumor activity against Mus musculus (mouse) EAC xenografted in Mus musculus Swiss albino (mouse) assessed as restoration of RBC count at 50 mg/kg, ip qd for 7 days. In kind it is functional, organism-based. Details: dose 50 mg/kg.
Experiment [9] has as its system Mus musculus. The experiment can be described thus: Antitumor activity against Mus musculus (mouse) EAC xenografted in Mus musculus Swiss albino (mouse) assessed as increase in median life span at 20 mg/kg, ip qd for 7 days relative to control. The note with it: 168 h, route intraperitoneal. It counts as functional.
The test system of experiment [10] is Mus musculus. The experiment can be described thus: Antitumor activity against Mus musculus (mouse) EAC xenografted in Mus musculus Swiss albino (mouse) assessed as increase in average life span at 20 mg/kg, ip qd for 7 days relative to control. It counts as functional. The note with it: 168 h, route intraperitoneal.
The nature of experiment [11]: Antitumor activity against Mus musculus (mouse) EAC xenografted in Mus musculus Swiss albino (mouse) assessed as non-viable cells at 20 mg/kg, ip qd for 7 days relative to control. The note with it: route intraperitoneal. In kind it is functional, Ehrlich.
The nature of experiment [12]: Antitumor activity against Mus musculus (mouse) EAC xenografted in Mus musculus Swiss albino (mouse) assessed as viable cells at 20 mg/kg, ip qd for 7 days relative to control. The note with it: route intraperitoneal. It counts as functional, Ehrlich.

`Oc1ccc(-c2nn(CNc3ccccn3)c(=S)o2)cc1`: the figures for the Activity in experiment [1] and in [2] were 77.5% and 22.5%, respectively. Also, the inhibition in vivo at 50 mg/kg in experiment [3] came to 73.9%. The Increase in median life span at 50 mg/kg in the experiment on Mus musculus [4] is 76.9%. In the experiment with Mus musculus [5], the percent increase in average life span at 50 mg/kg was found to be 80.7%. Besides, the result with Mus musculus [6], in the experiment with Mus musculus [7] and with Mus musculus [8] was Active.

In the case of `O=[N+]([O-])c1ccc(-c2nn(CNc3ccccc3)c(=S)o2)cc1`, the Activity worked out at 66.5% in experiment [1] and 33.5% in experiment [2]. In addition, the inhibition in vivo at 50 mg/kg in experiment [3] was found to be 56.5%. In addition, the Increase in median life span at 50 mg/kg with Mus musculus [4] amounted to 44.6%. For the same compound, the percent increase in average life span at 50 mg/kg with Mus musculus [5] stood at 46.4%. The outcome with Mus musculus [6], with Mus musculus [7] and in the experiment with Mus musculus [8] was Active.

In the case of `O=c1[nH]cc(F)c(=O)[nH]1` [FLUOROURACIL], the survival at 20 mg/kg with Mus musculus [9] amounted to 90.8%; with Mus musculus [10], 92.7%. For the same compound, the Activity in experiment [11] is 85.17%; in experiment [12] it was 14.83%.

Take `Cc1ccc(-c2nn(CNc3ccccn3)c(=S)o2)cc1`: the Activity in experiment [1] was 75.17%; in [2] it was 24.83%. Moreover, the inhibition in vivo at 50 mg/kg in experiment [3] was 56.5%. The Increase in median life span at 50 mg/kg in the experiment on Mus musculus [4] was found to be 73.8%. Also, the percent increase in average life span at 50 mg/kg in the experiment with Mus musculus [5] was determined as 74%. In addition, the outcome with Mus musculus [6], in the experiment with Mus musculus [7] and in the experiment on Mus musculus [8] was Active.

In the case of `O=[N+]([O-])c1ccc(-c2nn(CNc3ccccn3)c(=S)o2)cc1`, the Activity in experiment [1] worked out at 63.17%; in experiment [2], 36.83%. The inhibition in vivo at 50 mg/kg in experiment [3] was 60.8%. Besides, the Increase in median life span at 50 mg/kg in the experiment on Mus musculus [4] was determined as 36.9%. Further, in the experiment with Mus musculus [5], the percent increase in average life span at 50 mg/kg turned out to be 38.5%. The result in the experiment with Mus musculus [6], with Mus musculus [7] and with Mus musculus [8] was Active.

Regarding `S=c1oc(-c2ccc(Cl)cc2Cl)nn1CNc1ccccn1`, the results for the Activity in experiment [1] and in [2] were 72.67% and 27.33%, respectively. Further, the inhibition in vivo at 50 mg/kg in experiment [3] is 52.2%. For the same compound, the Increase in median life span at 50 mg/kg in the experiment on Mus musculus [4] was 47.7%. Besides, the percent increase in average life span at 50 mg/kg in the experiment with Mus musculus [5] was determined as 53.6%. Further, the outcome in the experiment with Mus musculus [6], with Mus musculus [7] and with Mus musculus [8] was Active.
